Experimental findings from patent US20180099967A1, “FUSED TRICYCLIC HETEROCYCLIC COMPOUNDS AS HIV INTEGRASE INHIBITORS” (MERCK SHARP & DOHME CORP., priority 2015, published 2018) are described below.

In the assay the test system is HIV-1. The assay is described as follows: microbe, parasite or virus in culture. Type of assay: cell-based, HIV-1 (H9IIIB or NL4-3 virus). As to the method:
HIV-1 replication was monitored using MT4-gag-GFP clone D3 (hereafter designate MT4-GFP), which are MT-4 cells modified to harbor a GFP reporter gene, the expression of which is dependent on the HIV-1 expressed proteins tat and rev. Productive infection of an MT4-GFP cell with HIV-1 results in GFP expression approximately 24 h post-infection.
MT4-GFP cells were maintained at 37° C./5% CO2/90% relative humidity in RPMI 1640 supplemented with 10% fetal bovine serum, 100 U/ml penicillin/streptomycin, and 400 μg/ml G418 to maintain the reporter gene. For infections, MT4-GFP cells were placed in the same medium lacking G418 and infected overnight with H9IIIB or NL4-3 virus at an approximate multiplicity of infection of 0.01 in the same incubation conditions. Cells were then washed and resuspended in either RPMI 1640 containing no serum at 1.6×10^5 cells/mL (serum free conditions), 10% normal human serum at 1.6×10^5 cells/mL (10% NHS conditions) or in 100% normal human serum at 2×10^5 cells/mL (100% NHS conditions). Compound plates were prepared by dispensing compounds taken up in DMSO into wells of 384 well poly D lysine-coated plates (0.2 μl/well) using an ECHO acoustic dispenser. Each compound was tested in a 10 point serial 3-fold dilution (typical final concentrations: 4.2 μM-0.21 nM). Controls included no inhibitor (DMSO only) and a combination of three antiviral agents (efavirenz, indinavir, and the integrase strand transfer inhibitor L-002254051 at final concentrations of 4 μM each). Cells were added (50 μL/well) to compound plates and the infected cells were maintained at 37° C./5% CO2/90% relative humidity.
Infected cells were quantified at two time points, ˜48 h and ˜72 h post-infection, by counting the number of green cells in each well using an Acumen eX3 scanner. […] Inhibition of R0 is calculated for each well, and IC50 value was determined using non-linear 4-parameter curve fitting.

Setting [1] is: Human immunodeficiency virus 1, read-out: WILD TYPE CELL ASSAY Viking IP (0% NHS) (nM).
The mark [2] stands for this setting: Human immunodeficiency virus 1, read-out: WILD TYPE CELL ASSAY Viking IP (100% NHS) (nM).
Where [3] appears, read: read-out: WILD TYPE CELL ASSAY Viking IP (0% NHS).
The mark [4] stands for this setting: read-out: WILD TYPE CELL ASSAY Viking IP (100% NHS).

pIC50: −log10 of the molar value. Read-outs that look alike come from different tables or passages of the source.

As to `CCN1C[C@H]2C[C@H](NCC3CC3)c3c(C(=O)NCc4ccc(F)cc4F)c(=O)c(O)c(n32)C1=O` [Compound 23], the IC50 is 43 nM under setting [1] and 1090 nM under setting [2].
The like results for `CCN1C[C@H]2C[C@@H](NCC3CC3)c3c(C(=O)NCc4ccc(F)cc4F)c(=O)c(O)c(n32)C1=O` [Compound 24] were, in that order, 20 nM and 37 nM.
Turning to `CCN1C[C@H]2C[C@H](NCc3ccccc3)c3c(C(=O)NCc4ccc(F)cc4F)c(=O)c(O)c(n32)C1=O` [Compound 25], the IC50 reads like this: under setting [1], 28 nM; under setting [2], 224 nM.
The like results for `CCN1C[C@H]2C[C@@H](NCc3ccccc3)c3c(C(=O)NCc4ccc(F)cc4F)c(=O)c(O)c(n32)C1=O` [Compound 26] were, in that order, 32 nM and 108 nM.
As for `CCN1C[C@H]2C[C@H](NCCOC)c3c(C(=O)NCc4ccc(F)cc4F)c(=O)c(O)c(n32)C1=O` [Compound 27], the IC50 was determined as 17 nM under setting [1] and 968 nM under setting [2].
Take `CCN1C[C@H]2C[C@@H](NCCOC)c3c(C(=O)NCc4ccc(F)cc4F)c(=O)c(O)c(n32)C1=O` [Compound 28]: the IC50 reads like this: under setting [1], 6 nM; under setting [2], 21 nM.
For the molecule `CCN1C[C@H]2C[C@H](NCCC(F)(F)F)c3c(C(=O)NCc4ccc(F)cc4F)c(=O)c(O)c(n32)C1=O` [Compound 29], the IC50 stood at 7 nM under setting [1] and 228 nM under setting [2].
The like results for `CCN1C[C@H]2C[C@@H](NCCC(F)(F)F)c3c(C(=O)NCc4ccc(F)cc4F)c(=O)c(O)c(n32)C1=O` [Compound 30] were, in that order, 6 nM and 31 nM.
The like results for `[2H]C([2H])([2H])C([2H])([2H])N[C@H]1C[C@@H]2CN(CC)C(=O)c3c(O)c(=O)c(C(=O)NCc4ccc(F)cc4F)c1n32` [Compound 31] were, in that order, 5 nM and 3720 nM.
Take `CCN1C[C@@H]2C[C@@H](N(C)C)c3c(C(=O)NCc4ccc(F)cc4F)c(=O)c(O)c(n32)C1=O` [Compound 37]: the pIC50 is 8.70 under setting [3] and 7.96 under setting [4].
For `CCN1C[C@@H]2C[C@@H](N(C)C)c3c(C(=O)NCc4cccc(Cl)c4F)c(=O)c(O)c(n32)C1=O` [Compound 38], the IC50 under setting [1] came to 1 nM and the IC50 under setting [2] was 12 nM.
Take `CCN1C[C@@H]2C[C@@H](N(C)C)c3c(C(=O)NCc4ccc(F)cc4)c(=O)c(O)c(n32)C1=O` [Compound 39]: the IC50 runs as follows: under setting [1], 3 nM; under setting [2], 22 nM.
Turning to `CCN1C[C@@H]2C[C@@H](N3CCC3)c3c(C(=O)NCc4cccc(Cl)c4F)c(=O)c(O)c(n32)C1=O` [Compound 40], the IC50 under setting [1] is 5 nM and the IC50 under setting [2] worked out at 20 nM.
In the same order, the values of `CCN1C[C@@H]2C[C@@H](NCCCCl)c3c(C(=O)NCc4cccc(Cl)c4F)c(=O)c(O)c(n32)C1=O` [Compound 41] are 2 nM and 22 nM.
The like results for `CCN1C[C@@H]2C[C@@H](N3CCCC3)c3c(C(=O)NCc4cccc(Cl)c4F)c(=O)c(O)c(n32)C1=O` [Compound 42] were, in that order, 5 nM and 16 nM.
For `CCN1C[C@H]2C[C@@H](NS(C)(=O)=O)c3c(C(=O)NCc4ccc(F)cc4F)c(=O)c(O)c(n32)C1=O` [Compound 44], the pIC50 is 8.70 under setting [3] and 7.72 under setting [4].
`CCN1C[C@H]2C[C@H](NS(C)(=O)=O)c3c(C(=O)NCc4ccc(F)cc4F)c(=O)c(O)c(n32)C1=O` [Compound 45]: the pIC50 under setting [3] was 8.15 and the pIC50 under setting [4] was 5.92.
Consider `CCN1C[C@@H]2C[C@H](NS(C)(=O)=O)c3c(C(=O)NCc4ccc(F)cc4F)c(=O)c(O)c(n32)C1=O` [Compound 46], for which the IC50 reads like this: under setting [1], 11 nM; under setting [2], 1040 nM.
For `CCN1C[C@@H]2C[C@@H](NS(C)(=O)=O)c3c(C(=O)NCc4ccc(F)cc4F)c(=O)c(O)c(n32)C1=O` [Compound 47], the IC50 was 1 nM under setting [1] and 10 nM under setting [2].
For the molecule `CCN1C[C@H]2C[C@@H](NS(C)(=O)=O)c3c(C(=O)NCc4ccc(F)c(F)c4F)c(=O)c(O)c(n32)C1=O` [Compound 48], the IC50 was found to be 7 nM under setting [1] and 23 nM under setting [2].
The like results for `CCN1C[C@H]2C[C@H](NS(C)(=O)=O)c3c(C(=O)NCc4ccc(F)c(F)c4F)c(=O)c(O)c(n32)C1=O` [Compound 49] were, in that order, 11 nM and 12500 nM.
The like results for `CCN1C[C@H]2C[C@@H](NS(C)(=O)=O)c3c(C(=O)NCc4ccc(F)c(Cl)c4F)c(=O)c(O)c(n32)C1=O` [Compound 50] were, in that order, 2 nM and 24 nM.
The like results for `CCN1C[C@H]2C[C@H](NS(C)(=O)=O)c3c(C(=O)NCc4ccc(F)c(Cl)c4F)c(=O)c(O)c(n32)C1=O` [Compound 51] were, in that order, 9 nM and 17800 nM.
`CCN1C[C@H]2C[C@@H](NS(=O)(=O)c3ccc(C)cc3)c3c(C(=O)NCc4ccc(F)cc4F)c(=O)c(O)c(n32)C1=O` [Compound 52]: the IC50 runs as follows: under setting [1], 22 nM; under setting [2], 310 nM.
The like results for `CCN1C[C@H]2C[C@H](NS(=O)(=O)c3ccc(C)cc3)c3c(C(=O)NCc4ccc(F)cc4F)c(=O)c(O)c(n32)C1=O` [Compound 53] were, in that order, 34 nM and 2260 nM.
In the same order, the values of `CCN1C[C@H]2C[C@@H](NC(C)=O)c3c(C(=O)NCc4ccc(F)cc4F)c(=O)c(O)c(n32)C1=O` [Compound 55] are 8 nM and 540 nM.
Take `CCN1C[C@@H]2C[C@@H](NC(C)=O)c3c(C(=O)NCc4ccc(F)cc4F)c(=O)c(O)c(n32)C1=O` [Compound 56]: the IC50 under setting [1] was 2 nM and the IC50 under setting [2] came out at 14 nM.
Consider `CCN1C[C@@H]2C[C@H](NC(C)=O)c3c(C(=O)NCc4ccc(F)cc4F)c(=O)c(O)c(n32)C1=O` [Compound 57], for which the IC50 under setting [1] was found to be 24 nM and the IC50 under setting [2] came out at 135 nM.
`CCN1C[C@@H]2CC(NC(=O)C(=O)N(C)C)c3c(C(=O)NCc4ccc(F)cc4F)c(=O)c(O)c(n32)C1=O` (stereo partly shown) [Compound 59]: the pIC50 was 8.22 under setting [3] and 7.47 under setting [4].
